{"source": "paper PMC6688628", "about": "“N-Substituted Pyrrole Derivative 12m Inhibits HIV-1 Entry by Targeting Gp41 of HIV-1 Envelope Glycoprotein” (Frontiers in Pharmacology, 2019)", "key": {"[1]": {"experiment": "XTT assay, MT-2 cells", "assay_type": "cell-based", "conditions": "human", "experimental": "(§1) The in vitro cell viability of NSPD-12m on HIV-1 target cells (U87-CD4-CXCR4, U87-CD4-CCR5, TZM-bl, and MT-2 cells) and HIV effector cells (CHO-WT cells) was analyzed by an XTT colorimetric assay. Briefly, 100 µl of 5 × 10^5/ml cells was mixed and incubated with 100 µl of NSPD-12m at graded concentrations at 37°C for 3 days. Then, 50 µl of XTT solution (1 mg/ml) containing 0.02 µM of phenazinemethosulphate (PMS) was added to each well, and the cells were incubated at 37°C for another 4 h. The absorbance at 450 nm was measured with an ELISA reader. The 50% cytotoxicity concentrations (CC50) were calculated using the CalcuSyn software ([Chou and Talalay, 1984])."}, "[2]": {"test_system": "HIV-1JR-FL Env mutant W571A pseudovirus", "assay_type": "cell-based", "conditions": "compared with wild-type HIV-1JR-FL pseudovirus"}, "[3]": {"experiment": "XTT assay, TZM-bl cells", "assay_type": "cell-based", "conditions": "human", "experimental": "as §1"}, "[4]": {"test_system": "HIV-1 NL4-3D36G", "assay_type": "cell-based", "conditions": "T20-sensitive parent strain, p24 ELISA, mean ± SD"}, "[5]": {"test_system": "T20-resistant HIV-1 strains", "experiment": "Anti-HIV-1 activity, panel of T20-resistant mutants", "assay_type": "cell-based", "conditions": "Human immunodeficiency virus 1; range over T20-resistant mutants; read-out: EC50 values against a series of T20-resistant mutants", "experimental": "The HIV-1 replication-inhibiting activity of compounds was determined as previously described ([Li et al., 2013]). Briefly, 1 × 10^4 TZM-bl or MT-2 cells were infected with primary HIV-1 strains or T20-resistant HIV-1 strains (100 TCID50) in 200 µl of RPMI-1640 medium containing 10% FBS in the presence or absence of compounds at graded concentrations for 12 h. The culture medium was replaced with fresh medium without the compounds. After culture for an additional 48 h, supernatants or cells were collected from each well. For the primary HIV-1 strains, the cells were treated using a luciferase kit. Briefly, the cells were lysed with the lysis reagent and were transferred into a 96-well flat-bottom luminometer plate after three washes with phosphate-buffered saline (PBS) (Costar Corning Inc., Corning, NY), followed by addition of the luciferase substrate included in the luciferase kit (Promega Corp., Madison, WI). The luciferase activity was measured immediately by an Ultra 384 microplate reader (Tecan, Research Triangle Park, NC). T20 was used as a positive control. For the T20-resistant HIV-1 strains, 100 µl of culture supernatant was mixed with 100 µl of 5% Triton X-100. […] Absorbance at 450 nm was recorded in an ELISA reader (Ultra 384, Tecan). EC50 values were calculated using the computer program CalcuSyn ([Chou and Talalay, 1984])."}, "[6]": {"biological_target": "T1, gp41 6-HB (N36/C34) (Human immunodeficiency virus type 1 group M subtype B, UniProt P04578)", "T1 construct": "purchased GL Biochem of China; host or cells: chemical solid-phase Fmoc synthesis", "T1 sequence (P04578 546-581)": "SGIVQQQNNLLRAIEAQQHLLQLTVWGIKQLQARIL", "experiment": "CD spectroscopy of N36/C34 alpha-helical conformation", "assay_type": "biochemical, HIV-1", "conditions": "20-µM compound preincubated with N36 before the addition of C34", "experimental": "The effects of NSPD-12m on the formation of the secondary α-helix structures of the peptides N36 and C34 were detected by CD spectroscopy as described previously ([Liu et al., 2005]; [Zhang et al., 2018]). Briefly, the peptide N36 (10 µM in PBS) was incubated with NSPD-12m (20 µM in PBS) or PBS at 37°C for 30 min, followed by incubation with the peptide C34 (10 µM in PBS) at 37°C for another 30 min. To further confirm that NSPD-12m inhibited the formation of secondary α-helix structures, the peptide N36 was incubated with the peptide C34 at 37°C for 30 min before the addition of the compound. ADS-J1 (40 µM in PBS) was used as a positive control. The reported CD spectra of the peptides N36 and C34 and the mixture of N36, C34, and the compounds described previously were obtained at 25°C using a Jasco 715 spectropolarimeter (Jasco Inc., Japan) with a 5.0-nm bandwidth, 0.1-nm resolution, 0.1-cm path length, 4.0-s response time, and 50-nm/min scanning speed. The spectra were corrected by the subtraction of a blank corresponding to the solvent. The quantities of compounds with α-helix structures were estimated from the molar ellipticity at 222 nm using Jasco software utilities."}, "[7]": {"test_system": "HIV-1 US4 (GS 007)", "experiment": "microbe, parasite or virus in culture", "assay_type": "cell-based", "conditions": "Human immunodeficiency virus 1, primary strain US4 (GS 007), luciferase readout, mean ± SD", "experimental": "(§2) The HIV-1 replication-inhibiting activity of compounds was determined as previously described ([Li et al., 2013]). Briefly, 1 × 10^4 TZM-bl or MT-2 cells were infected with primary HIV-1 strains or T20-resistant HIV-1 strains (100 TCID50) in 200 µl of RPMI-1640 medium containing 10% FBS in the presence or absence of compounds at graded concentrations for 12 h. The culture medium was replaced with fresh medium without the compounds. After culture for an additional 48 h, supernatants or cells were collected from each well. For the primary HIV-1 strains, the cells were treated using a luciferase kit. Briefly, the cells were lysed with the lysis reagent and were transferred into a 96-well flat-bottom luminometer plate after three washes with phosphate-buffered saline (PBS) (Costar Corning Inc., Corning, NY), followed by addition of the luciferase substrate included in the luciferase kit (Promega Corp., Madison, WI). The luciferase activity was measured immediately by an Ultra 384 microplate reader (Tecan, Research Triangle Park, NC). T20 was used as a positive control. For the T20-resistant HIV-1 strains, 100 µl of culture supernatant was mixed with 100 µl of 5% Triton X-100. Then, those virus lysates were assayed for p24 antigen by enzyme linked immunosorbent assay (ELISA) as previously described ([Li et al., 2010]). Absorbance at 450 nm was recorded in an ELISA reader (Ultra 384, Tecan). EC50 values were calculated using the computer program CalcuSyn ([Chou and Talalay, 1984])."}, "[8]": {"test_system": "HIV-1 93/BR/020", "experiment": "microbe, parasite or virus in culture", "assay_type": "cell-based", "conditions": "Human immunodeficiency virus 1, primary strain 93/BR/020, luciferase readout, mean ± SD", "experimental": "as §2"}, "[9]": {"test_system": "HIV-1 BCF02", "experiment": "microbe, parasite or virus in culture", "assay_type": "cell-based", "conditions": "Human immunodeficiency virus 1, primary strain BCF02, luciferase readout, mean ± SD", "experimental": "as §2"}, "[10]": {"experiment": "XTT assay, U87-CD4-CXCR4 cells", "assay_type": "cell-based", "conditions": "human", "experimental": "as §1"}, "[11]": {"test_system": "VSV-G pseudotyped virus", "assay_type": "cell-based, vesicular stomatitis virus"}, "[12]": {"experiment": "XTT assay, CHO-WT cells", "assay_type": "cell-based", "conditions": "Chinese hamster", "experimental": "as §1"}, "[13]": {"test_system": "HIV-1JR-FL Env mutant K574A pseudovirus", "assay_type": "cell-based", "conditions": "compared with wild-type HIV-1JR-FL pseudovirus"}, "[14]": {"test_system": "HIV-1 NL4-3(36G)V38A,N42D", "conditions": "T20-resistant NL4-3(36G)V38A,N42D; p24 ELISA; mean ± SD"}}}
{"smiles": "Cc1cc(/C=C2\\SC(=S)N(Cc3ccccc3C(F)(F)F)C2=O)c(C)n1-c1ccc(O)c(C(=O)O)c1", "note": "[NSPD-12m]", "values": [{"measurement": "CC50 at 3 days", "setting": "[1]", "value": "67.1 ± 11", "unit": "µM"}, {"measurement": "CC90 at 3 days", "setting": "[1]", "value": "124 ± 70.2", "unit": "µM"}, {"measurement": "inhibitory activity against W571A mutant pseudovirus", "setting": "[2]", "value": "retained the inhibitory activity"}, {"measurement": "CC50 at 3 days", "setting": "[3]", "value": "79 ± 11.4", "unit": "µM"}, {"measurement": "CC90 at 3 days", "setting": "[3]", "value": "118 ± 18", "unit": "µM"}, {"measurement": "IC50", "setting": "[4]", "value": "10.8 ± 1.67", "unit": "µM"}, {"measurement": "IC90", "setting": "[4]", "value": "55.4 ± 16.9", "unit": "µM"}, {"measurement": "EC50", "setting": "[5]", "value": "15.7 to 24.7", "unit": "µM"}, {"measurement": "α-helical content of the 6-HB (CD, 222 nm)", "setting": "[6]", "value": "clearly reduced"}, {"measurement": "IC50", "setting": "[7]; read-out: IC50", "value": "2.34 ± 0.353", "unit": "µM"}, {"measurement": "IC90", "setting": "[7]; read-out: IC90", "value": "5.27 ± 2.73", "unit": "µM"}, {"measurement": "IC50", "setting": "[8]", "value": "4.91 ± 0.13", "unit": "µM"}, {"measurement": "IC90", "setting": "[8]; read-out: IC90", "value": "6.76 ± 1.56", "unit": "µM"}, {"measurement": "IC50", "setting": "[9]; read-out: IC50", "value": "1.79 ± 0.238", "unit": "µM"}, {"measurement": "IC90", "setting": "[9]; read-out: IC90", "value": "3.48 ± 1.09", "unit": "µM"}, {"measurement": "CC50 at 3 days", "setting": "[10]", "value": "101.4 ± 0.48", "unit": "µM"}, {"measurement": "CC90 at 3 days", "setting": "[10]", "value": "122.5 ± 0.59", "unit": "µM"}, {"measurement": "inhibition of VSV-G pseudovirus infection", "setting": "[11]", "value": "could not be strongly inhibited"}, {"measurement": "CC50 at 3 days", "setting": "[12]", "value": "60 ± 13.2", "unit": "µM"}, {"measurement": "CC90 at 3 days", "setting": "[12]", "value": "74.6 ± 13.8", "unit": "µM"}, {"measurement": "inhibitory activity against K574A mutant pseudovirus", "setting": "[13]", "value": "significant loss"}, {"measurement": "IC50", "setting": "[14]", "value": "22.4 ± 2.84", "unit": "µM"}, {"measurement": "IC90", "setting": "[14]", "value": "32.5 ± 4.95", "unit": "µM"}]}
